Patent US20250333709A1, “BRAIN ENDOTHELIAL CELLS AND METHODS OF MAKING” (President and Fellows of Harvard College, priority 2022, published 2025)
Like-named read-outs stand apart in the source and are kept apart here.

B1: ciliary neurotrophic factor (protein, UniProt P26441 1-200, looked up)
Ciliary neurotrophic factor: MAFTEHSPLTPHRRDLCSRSIWLARKIRSDLTALTESYVKHQGLNKNINLDSADGMPVASTDQWSELTEAERLQENLQAYRTFHVLLARLLEDQQVHFTPTEGDFHQAIHTLLLQVAAFAYQIEELMILLEYKIPRNEADGMPINVGDGGLFEKKLWGLKVLQELSQWTVRSIHDLRFISSHQTGIPARGSHYIANNKKM
notes: Human recombinant ciliary neurotrophic factor, 20 ng/ml
B2: WNT3A: Wnt ligand used at 100 ng/ml to activate Wnt signaling in iPSC-ECs (protein, UniProt P56704 19-352, looked up)
Protein Wnt-3a: SYPIWWSLAVGPQYSSLGSQPILCASIPGLVPKQLRFCRNYVEIMPSVAEGIKIGIQECQHQFRGRRWNCTTVHDSLAIFGPVLDKATRESAFVHAIASAGVAFAVTRSCAEGTAAICGCSSRHQGSPGKGWKWGGCSEDIEFGGMVSREFADARENRPDARSAMNRHNNEAGRQAIASHMHLKCKCHGLSGSCEVKTCWWSQPDFRAIGDFLKDKYDSASEMVVEKHRESRGWVETLRPRYTYFKVPTERDLVYYEASPNFCEPNPETGSFGTRDRTCNVSSHGIDGCDLLCCGRGHNARAERRREKCRCVFHWCCYVSCQECTRVYDVHTCK

What was measured:
iPSC-ECs [1] = test: GLUT1 and PLVAP expression in iPSC-ECs after Wnt signaling activation (immunostaining, mRNA); format: cell-based, human; settings: vs. EGM2, FIG. 2A-2C
Description: CTNNB1::GFP iPSC line (Allen Cell, AICS-0058-067iPSC) was used to visualize subcellular localization of beta-catenin protein. *, P<0.05 vs. EGM2; **, P<0.01 vs. EGM2. Scale bars, 100 um.

iPSC-ECs [2] = test: mRNA levels of brain EC genes in iPSC-ECs with HDAC inhibitor, Wnt pathway activator and PKC activator; format: cell-based, human; settings: 48 hours, presence and absence of quisinostat 10 nM, Chir99021 5 uM, WNT3A 100 ng/ml, IndoV 100 nM, PMA 100 nM, FIG. 5C
Experimental: FIGS. 5A-5C show overexpression of brain EC-specific transcription factors and inhibition of HDAC induce a subset of brain EC-enriched genes. […] Chir99021, 5 uM; WNT3A, 100 ng/ml; IndoV, 100 nM; PMA, 100 nM, Q, quisinostate 10 nM; 48 hours. *, P<0.05 vs. Control; **, P<0.01 vs. Control.

iPSC-ECs [3] = settings: 10 uM for 2 days, FIG. 4A, 4C
Experimental: Representative immunostaining images of iPSC-ECs after treatment with TGFBR1 inhibitor RepSox (10 uM, FIG. 4A) and human recombinant TGF beta (FIG. 4B). […] All compounds were treated at 10 uM concentrations for 2 days. […] Scale bars, 100 um.

iPSC-ECs [4] = test: Brain EC gene regulation in iPSC-ECs exposed to a combination of WNT3A, CNTF and RepSox; format: cell-based, human; settings: FIG. 4D
iPSC-ECs [5] = test: CLDN5 expression in CNTF-treated iPSC-ECs (immunostaining); format: cell-based, human; settings: CNTF 20 ng/ml, CNTFRa 100 ng/ml, FIG. 3
Experimental: FIG. 3A illustrates iPSC-ECs exposed to either fresh astrocyte medium (AM) or astrocyte-conditioned medium (ACM). Conditioned medium was collected for 48 hours. Both AM and ACM were treated as 1:1 mixture with EC medium (EGM2). […] Human recombinant ciliary neurotrophic factor (CNTF), 20 ng/ml; human recombinant CNTF receptor alpha (CNTFRa), 100 ng/ml. […] PM and PCM were treated as 1:1 mixture with EGM2 for 2 days. […] Scale bars, 100 um.

Row | Molecule | GLUT1 expression (iPSC-ECs [1]) | PLVAP expression (iPSC-ECs [1]) | expression of ABCB1 (mRNA) (iPSC-ECs [2]) | expression of MFSD2A (mRNA) (iPSC-ECs [2]) | CLDN5 expression (iPSC-ECs [3]) | effect on brain EC gene regulation (iPSC-ECs [4]) | CLDN5 expression (iPSC-ECs [5])
1 | Cc1c[nH]c(-c2cnc(NCCNc3ccc(C#N)cn3)nc2-c2ccc(Cl)cc2Cl)n1 [Chir99021] | upregulates | downregulates | induce | induce | – | – | –
2 | CC(C)[C@H]1C(=O)N[C@H](CO)Cc2c[nH]c3cccc(c23)N1C [IndoV] | – | – | induce | induce | – | – | –
3 | CCCCCCCCCCCCCC(=O)O[C@@H]1[C@@H](C)[C@@]2(O)[C@@H](C=C(CO)C[C@]3(O)C(=O)C(C)=C[C@@H]23)[C@@H]2C(C)(C)[C@]12OC(C)=O [PMA] | – | – | induce | induce | – | – | –
4 | Cc1cccc(-c2[nH]ncc2-c2ccc3ncccc3n2)n1 [RepSox] | – | – | – | – | increase | additive effect | –
5 | B1 | – | – | – | – | – | additive effect | increases
6 | B2 | upregulates | downregulates | induce | induce | – | additive effect | –
